Here are results for 1 compound from US9399145B2, “Nanoscale neuromodulating platform for retina neuron activation apparatus and method” (The Board of Trustees of the University of Illinois, priority 2005, dated 2016).

One assay deals with T1, α1β3γ2 GABAAR (UniProt P28472+P62813).
T1 construct: expressed in transfected cells; host or cells: Xenopus oocytes
In words: Two-electrode voltage clamp of α1β3γ2 GABAAR-expressing oocytes. In kind it is cell-based. The note with it: 1 μM trans-MPC088 with 1 μM GABA (~EC3). The source says:
Propofol is known to modulate GABAA receptors that contain a β subunit. […] Data in each group was obtained from 4 oocytes. […] Aggregate concentration-response data was also obtained from α1β3γ2 (squares) and α4β3δ (circles) receptors with trans-dominant MPC088 alone (FIG. 37b). Data was similarly normalized to the saturating GABA response obtained from each oocyte. Results for α1β2γ2 GABAARs in a and b (triangles) were reproduced from those of FIGS. 35c and 36b, respectively.
(§1) The activity of trans-dominant MPC088 was also tested at receptors containing the β-subunit substitution N265M, a mutation that markedly reduces the action of propofol both in vitro and in vivo (Jurd et al. (2003); Siegwart et al. (2002)). […] For each receptor type, illustrated responses are representative data obtained from a single oocyte.

The next assay deals with T2, α4β3δ GABAAR (Homo sapiens, UniProt P28472+P48169).
T2 construct: expressed in transfected cells; host or cells: Xenopus oocytes
In words: Two-electrode voltage clamp of α4β3δ GABAAR-expressing oocytes. It counts as cell-based. The source says: Propofol is known to modulate GABAA receptors that contain a β subunit. […] Data in each group was obtained from 4 oocytes.

Another assay addresses T3, α1β3(N265M)γ2 GABAARs (UniProt P28472+P62813, N290M).
T3 construct: expressed in transfected cells; host or cells: Xenopus oocytes
In words: Two-electrode voltage clamp of α1β3(N265M)γ2 GABAAR-expressing oocytes. It counts as cell-based. The note with it: 1 μM trans-MPC088 with 3 μM GABA (~EC2). How it is done:
as §1

For assay [1], the target named is T4, GABAAR subtype that consists of a pentameric assembly of p1 subunits (Homo sapiens, UniProt P24046).
T4 construct: expressed in transfected cells; host or cells: Xenopus oocytes
The assay can be described thus: Oocytes expressing the GABAAR subtype of p1 subunits. It counts as cell-based.

Assay [2] concerns GABAARs of isolated bipolar cells of rat retina. The assay can be described thus: Whole-cell recording of isolated retinal bipolar cells. It counts as cell-based. From the text:
Data obtained with trans-MPC088 indicated substantial GABAAR potentiating activity by trans-MPC088 (FIG. 61).

The subject of assay [3] is GABAARs of cerebellar PNs. In words: Whole-cell voltage clamp of cerebellar Purkinje neurons in slices, GABA-evoked currents with UV/blue light. It counts as cell-based, mouse. The note with it: 10 μM GABA + 30 μM MPC088 by pressure pipette.
Experimental: To evaluate the efficacy of MPC088 in GABAAR-expressing cells in situ, whole-cell voltage-clamp experiments were conducted on Purkinje neurons (PNs) in parasagittal slices from mouse cerebellum (Häusser et al. (1997); Smith et al. (2003)) (FIG. 40). […] The cell was flashed with UV light (1 s, shuttered from a mercury arc lamp), then blue light (1 s, from a 470 nm LED), and then again with UV light (1 s). […] The magnitude of the UV-to-blue transition was calculated as (B-UV1)/UV1; that of the blue-to-UV transition was calculated as (UV2-B)/UV2. […] For the negative control experiments (i.e., those involving exposure to vehicle or propofol alone) in which no light-evoked current was detectable, current was measured for identical epochs at the terminations of the light pulses.
Experiments on cerebellar PNs employed acute slices obtained from cerebella of 16-30 day-old C57/BL6 mice (Charles River Laboratories). After induction of deep anesthesia with isoflurane, mice were decapitated, and the cerebellum vermis was removed and placed in an ice-cold cutting solution containing (in mM): 85 NaCl, 2.5 KCl, 0.5 CaCl2, 4 MgCl2, 1.25 NaH2PO4, 24 NaHCO3, 25 glucose, and 75 sucrose. A Leica VT1000 vibratome was used to cut 250 μm thick, sagittal slices from the cerebellar vermis. […]
Assay [4] relates to GABAARs of cerebellar PNs. In words: Test for direct agonist activity on Purkinje neurons (recirculating MPC088, no exogenous GABA). In kind it is cell-based, mouse. The method, then: To test for direct agonist activity of MPC088 on PNs, cerebellar slices were perfused with recirculating 30 μM MPC088 (the maximal MPC088 concentration that could be reliably maintained solubilized in bicarbonate-buffered solution). MPC088 was converted to cis-dominant form by a 2-min exposure to UV light (LED, 365 nm/160 mW, Mouser, Inc., Mansfield, Tex.; LED driver, 700 mA BuckPuck DC Driver, Quadica Developments, Inc., Brantford, Ontario, Canada), before its dilution into the recirculating external solution. The same LED was then used to continuously UV-illuminate the recirculating solution for the duration of the experiment. Whole-cell voltage clamp recordings were obtained from PNs and determined the change in membrane current produced by alternating blue and UV illumination of the slice, as in the FIG. 40 experiments. […] The temporal sequence of illumination differed among the experiments (e.g., only the cell in a received multiple blue/UV exposures), but the data plotted are the amplitudes from the blue to UV transition (in the case of the cell in a, this is the blue/UV transition from the first of the three exposures). Yellow-filled data points indicate results from the experiment in a. Each data point is the average obtained from 4-10 consecutive recordings. […] Error bars represent the SEM (FIG. 42b).

The test system of assay [5] is AMPAR/NMDAR-mediated EPSCs. In words: AMPAR/NMDAR-mediated EPSCs in hippocampal CA1 pyramidal neurons. It counts as cell-based, mouse. The method, then:
To test whether MPC088 affects excitatory synaptic transmission, whole-cell voltage-clamp recordings were carried out in CA1 pyramidal neurons of mouse hippocampus. As in the experiments of FIG. 42, these recordings were obtained with perfusion of the slice with cis-dominant MPC088 (30 μM) under recirculation. PTX […] was also included in the external solution to block GABAARs. EPSCs were evoked by stimulating the Schaffer collaterals with a bipolar matrix microelectrode (FHC, Inc., Bowdoin, Me.), and recorded at a holding potential of +40 mV to uncover the NMDA receptor (NMDAR) component of the EPSC. Paired electrical stimuli separated by 80 ms were also presented to assess possible effects of MPC088 on short-term plasticity. Each cell was […] 20 interleaved trials in which the cell was exposed to two 0.1-s UV pulses surrounding a 1-s period of either blue light or no light (FIG. 50). […] Each trace is the average of 10 traces with stimulus and shutter artifacts blanked for clarity. The black and grey asterisks indicate the time points, respectively, for the current measurements of the AMPAR- and NMDAR-mediated components. FIG. 50b depicts summary data including that shown in a. Plotted for the blue light and no blue light conditions are the average current amplitudes measured at the peak of the first EPSC (black bars), and just prior to the second stimulus (grey bars), as indicated by the asterisks in a.
To quantify the effects of MPC088 on AMPA receptors (AMPARs) and NMDARs, for the first EPSC of the pair, the peak current and the current just prior to the second stimulus were measured, which reflect AMPAR and NMDAR components, respectively, of the EPSC^41. […] Additionally, blue light had no significant effect on the decay of the compound current (average τ from single-exponential fitting to the decay of the second EPSC: Blue off, 131±11 ms; Blue on, 131±11 ms; p=0.89). There was also no significant effect of blue light on the paired-pulse ratio (PPR, measured as Peak(2nd EPSC)/Peak(1st EPSC): Blue off, 1.72±0.07; Blue on, 1.85±0.14; p=0.34).
Recordings from hippocampal CA1 pyramidal neurons were obtained from 17-23 day old animals. Briefly, the hippocampus was completely removed from the brain and then sliced in 300-μm sections. Prior to recording, a cut was made with a scalpel blade between CA1 and CA3 in order to completely sever all connections between the two; this was done in order to abolish polysynaptic activity due to antidromic activation of CA3 pyramidal cells. Recordings were carried out under voltage clamp with an internal solution containing (in mM): 130 CsCl, 10 HEPES, 1 CaCl2, 2 ATP, 0.2 GTP, 10 EGTA, and 5 QX-314 Br, and pH was adjusted to 7.3 with CsOH. All data from these experiments are presented as mean±SEM.

Consider `CC(C)c1cc(CCCC(=O)NCc2ccc(/N=N/c3ccc(C(=O)NCCN)cc3)cc2)cc(C(C)C)c1O` [MPC088, (E)-N-(2-Aminoethyl)-4-((4-((4-(4-hydroxy-3,5-diisopropylphenyl)butanamido)methyl)phenyl)diazenyl)benzamide], for which the response enhancement is recorded as 4.4±1.3 fold on α1β3γ2 GABAAR and 2.9±0.8 fold on α1β3(N265M)γ2 GABAARs. Besides, the “plateau of response function relative to response with high GABA concentration” value at α4β3δ GABAAR (co-applied 50 nM GABA (~EC8)) is on record as roughly 42%. For the same compound, the “direct agonist activity” value at α4β3δ GABAAR (compound alone) was “much lower than those at α1β3γ2 and α1β2γ2”. The “potentiating and direct agonist activity” value in assay [1] is “lacked both potentiating and direct agonist activity”. The “potentiating factor (peak amplitude relative to the 10 μM GABA response)” value in assay [2] (5 μM with 10 μM GABA and 100 μM TPMPA) is 1.73±0.01; in assay [2] (15 μM with 10 μM GABA and 100 μM TPMPA), 3.26±0.42. For the same compound, the “mean ratio of absolute current magnitude in response to blue→UV/UV→blue” value in assay [3] was 1.00±0.01. Also, the “average light-evoked current change” value in assay [4] (30 μM recirculating, blue/UV illumination, subset of 28 of 44 cells with change >18 pA) was 80±13 pA. Further, the “mode of action in cerebellar tissue” value in assay [4] (concentrations comparable to or lower than 30 μM) was “modulatory (endogenous GABA-dependent) rather than agonistic”. For the same compound, the “actions on AMPAR-mediated and NMDAR-mediated EPSCs” value in assay [5] (30 μM) was “negligible actions on AMPAR-mediated and NMDAR-mediated EPSCs”. In addition, the “average τ of decay of the second EPSC” value in assay [5] (30 μM MPC088, Blue off) stood at 131 ± 11 ms; in assay [5] (30 μM MPC088, Blue on), 131 ± 11 ms. For the same compound, the “paired-pulse ratio (PPR)” value worked out at 1.72±0.07 in assay [5] (30 μM MPC088, Blue off) and 1.85±0.14 in assay [5] (30 μM MPC088, Blue on).
